Assay results taken from US6515140B2, “Fused pyrrolecarboxamides; a new class of GABA brain receptor ligands” (Neurogen Corporation, priority 1996, dated 2003).

Legend:
[1] = target: GABAa receptor; assay: GABAa receptor binding assay (3H-RO15-1788 displacement); details: rat cortical tissue homogenate; radioligand 0.5 nM 3H-RO15-1788 [3H-Flumazenil]; 30 min at 4° C.
Experimental: The pharmaceutical utility of compounds of this invention are indicated by the following assay for GABAa receptor binding activity.
Assays are carried out as described in Thomas and Tallman (J. Bio. Chem. 156:9838-9842 , J. Neurosci. 3:433-440, 1983). Rat cortical tissue is dissected and homogenized in 25 volumes (w/v) of 0.05 M Tris HCl buffer (pH 7.4 at 4° C.). The tissue homogenate is centrifuged in the cold (4°) at 20,000×g for 20′. The supernatant is decanted and the pellet is rehomogenized in the same volume of buffer and again centrifuged at 20,000×g. The supernatant is decanted and the pellet is frozen at −20° C. overnight. The pellet is then thawed and rehomogenized in 25 volume (original wt/vol) of buffer and the procedure is carried out twice. The pellet is finally resuspended in 50 volumes (w/vol of 0.05 M Tris HCl buffer (pH 7.4 at […]).
Incubations contain […] of tissue homogenate, […] of radioligand 0.5 nM (^3H-RO15-1788 [^3H-Flumazenil] specific activity 80 Ci/mmol), drug or blocker and buffer to a total volume of […]. Incubations are carried for 30 min at 4° C. then are rapidly filtered through GFB filters to separate free and bound ligand. Filters are washed twice with fresh 0.05 M Tris HCl buffer (pH 7.4 at 4° C.) and counted in a liquid scintillation counter. […] diazepam is added to some tubes to determine nonspecific binding. Data are collected in triplicate determinations, averaged and % inhibition of total specific binding is calculated. Total Specific Binding=Total−Nonspecific. In some cases, the amounts of unlabeled drugs is varied and total displacement curves of binding are carried out.

Structure (SMILES)	Ki [1] [nM]	melting point
CC1CC(=O)c2c(C(=O)Nc3ccc(OCCO)cc3)c[nH]c2C1 (stereo not drawn) [Compound 9, N-[4-(2-Hydroxyethoxy)phenyl]-4-oxo-6-methyl-4,5,6,7-tetrahydro-1H-indole-3-carboxamide]	1.3	245 to 247 °C
O=C(Nc1ccc(OCCO)nc1)c1c[nH]c2c1C(=O)CCC2 [Compound 14]	3	
O=C(Nc1ccc2c(c1)OCCO2)c1c[nH]c2c1C(=O)CCC2 [Compound 11, N-(2,3-Dihydro-1,4-benzodioxin-6-yl)-4-oxo-4,5,6,7-tetrahydro-1H-indole-3-carboxamide]	7	254 to 256 °C
CC1(C)CC(=O)c2c(C(=O)Nc3cccc(CO)c3)c[nH]c2C1 [Compound 8, N-[3-(Hydroxymethyl)phenyl]-4-oxo-6,6-dimethyl-4,5,6,7-tetrahydro-1H-indole-3-carboxamide]	27	233 to 235 °C
O=C(Nc1ccc(OCC(=O)N2CCOCC2)c(F)c1)c1c[nH]c2c1C(=O)CCC2 [Compound 232, N-[3-fluoro-4-(2-morpholin-4-yl-2-oxoethoxy)phenyl](4-oxo-(4,5,6,7-tetrahydroindol-3-yl))carboxamide]		110 °C
CCOC(=O)COc1ccc(NC(=O)c2c[nH]c3c2C(=O)CCC3)cc1F [Compound 222, N-[3-Fluoro-4-(2-ethoxy-2-oxoethoxy)phenyl]-4-oxo-4,5,6,7-tetrahydro-1H-indole-3-carboxamide]		192 to 196 °C
CCCN(CCC)CCNC(=O)COc1ccc(NC(=O)c2c[nH]c3c2C(=O)CCC3)cc1 [Compound 228, N-[2-(dipropylamino)ethyl]-2-{4-[(4-oxo-(4,5,6,7-tetrahydroindol-3-yl))carbonylamino]phenoxy}acetamide]		148 to 150 °C
O=C(Nc1cnccc1OCCN1CCCC1)c1c[nH]c2c1C(=O)CCC2 [Compound 124, N-[4-(2-Pyrrolidin-1-ylethoxy)pyrid-3-yl]-4-oxo-4,5,6,7-tetrahydro-1H-indole-3-carboxamide]		148 to 150 °C
CC(C)NCCOc1ccncc1NC(=O)c1c[nH]c2c1C(=O)CCC2.Cl		167 to 169 °C
CCCNCCOc1ccc(NC(=O)c2c[nH]c3c2C(=O)CCC3)cc1F.Cl		373 °C
CC1(C)CCc2[nH]cc(C(=O)Nc3ccc4c(c3)OCCO4)c2C1=O [Compound 37, N-(2,3-Dihydro-1,4-benzodioxin-6-yl)-4-oxo-5,5-dimethyl-4,5,6,7-tetrahydro-1H-indole-3-carboxamide]		241 to 243 °C
CC1(C)CC(=O)c2c(C(=O)Nc3ccc4c(c3)OCO4)c[nH]c2C1 [Compound 43, N-(1,3-Benzodioxol-5-yl)-4-oxo-6,6-dimethyl-4,5,6,7-tetrahydro-1H-indole-3-carboxamide]		245 to 246 °C
CC(C)CNCCOc1ccc(NC(=O)c2c[nH]c3c2C(=O)CCC3)c(F)c1 [Compound 76, N-[2-Fluoro-4-(2-Isobutylaminoethoxy)phenyl]-4-oxo-4,5,6,7-tetrahydro-1H-indole-3-carboxamide]		152 to 155 °C
O=C(Nc1cccc(OCCCNC23CC4CC(CC(C4)C2)C3)c1)c1c[nH]c2c1C(=O)CCCC2 [Compound 183, N-[3-(3-Adamant-1-ylaminopropoxy)phenyl]4-oxo-1,4,5,6,7,8-hexahydro-cyclohepta[b]pyrrole-3-carboxamide]		175 to 176 °C
CN(C)CCCOc1ccncc1NC(=O)c1c[nH]c2c1C(=O)CCC2 [Compound 123, N-[4-(3-Dimethylaminopropoxy)pyrid-3-yl]-4-oxo-4,5,6,7-tetrahydro-1H-indole-3-carboxamide]		247 °C
CCN(CC)CCN(C)C(=O)COc1ccc(NC(=O)c2c[nH]c3c2C(=O)CCC3)cc1		220 to 228 °C
CN(C)CCOc1ccncc1NC(=O)c1c[nH]c2c1C(=O)CCC2 [Compound 122, N-[4-(2-Dimethylaminoethoxy)pyrid-3-yl]-4-oxo-4,5,6,7-tetrahydro-1H-indole-3-carboxamide]		163 to 166 °C
CCCCNCCOc1ccncc1NC(=O)c1c[nH]c2c1C(=O)CCC2.Cl		157 to 159 °C

More lines, now with the values ahead:

Ki [1] [nM]	melting point	Structure (SMILES)
37	248 to 249 °C	O=C(Nc1ccc2c(c1)OCO2)c1c[nH]c2c1C(=O)CCC2 [Compound 10, N-(1,3-Benzodioxol-5-yl)-4-oxo-4,5,6,7-tetrahydro-1H-indole-3-carboxamide]
0.24	197 to 200 °C	CNCCc1ccc(NC(=O)c2c[nH]c3c2C(=O)CCC3)cc1 [Compound 4, N-[4-(2-Methylaminoethyl)phenyl]-4-oxo-4,5,6,7-tetrahydro-1H-indole-3-carboxamide]
5	222 to 223 °C	O=C(Nc1ccc2c(c1)OCCO2)c1c[nH]c2c1C(=O)CCCC2 [Compound 12, N-(2,3-Dihydro-1,4-benzodioxin-6-yl)-4-oxo-1,4,5,6,7,8-hexahydro-cyclohepta[b]pyrrole-3-carboxamide]
9	171 to 173 °C	O=C(Nc1ccc(CNC2CC2)cc1)c1c[nH]c2c1C(=O)CCC2 [Compound 5, N-[4-(Cyclopropylaminomethyl)phenyl]-4-oxo-4,5,6,7-tetrahydro-1H-indole-3-carboxamide]
9	> 200 °C (dec.)	NCc1ccc(NC(=O)c2c[nH]c3c2C(=O)CCC3)cc1 [Compound 6, N-[4-(Aminomethyl)phenyl]-4-oxo-4,5,6,7-tetrahydro-1H-indole-3-carboxamide]
90	130 to 132 °C	CNCc1cccc(NC(=O)c2c[nH]c3c2C(=O)CCC3)c1 [Compound 1, N-[3-(Methylaminomethyl)phenyl]-4-oxo-4,5,6,7-tetrahydro-1H-indole-3-carboxamide]
30	173 to 175 °C	CNCc1ccc(NC(=O)c2c[nH]c3c2C(=O)CCCC3)cc1 [Compound 7]
	226 to 230 °C	O=C(Nc1ccc(OCCn2ccnc2)cc1)c1c[nH]c2c1C(=O)CCC2 [Compound 91, N-[4-(2-Imidaz-1-ylethoxy)phenyl]-4-oxo-4,5,6,7-tetrahydro-1H-indole-3-carboxamide]
29		COCCOc1ccc(NC(=O)c2c[nH]c3c2C(=O)CCC3)cc1 [Compound 2, N-[4-(Methoxyethoxy)phenyl]-4-oxo-4,5,6,7-tetrahydro-1H-indole-3-carboxamide]
49	186 to 188 °C	CNCc1ccc(NC(=O)c2c[nH]c3c2C(=O)CCC3)c(F)c1 [Compound 3, N-[2-Fluoro-4-(methylaminomethyl)phenyl]-4-oxo-4,5,6,7-tetrahydro-1H-indole-3-carboxamide]
	216 to 218 °C	CN(C)Cc1ccc(NC(=O)c2c[nH]c3c2C(=O)CCC3)cc1 [Compound 23, N-[4-(Dimethylaminomethyl)phenyl]-4-oxo-4,5,6,7-tetrahydro-1H-indole-3-carboxamide]
24	322 to 323 °C	O=C(Nc1ccc2c(c1)NCC2)c1c[nH]c2c1C(=O)CCC2 [Compound 13, N-(2,3-Dihydro-1H-indol-6-yl)-4-oxo-4,5,6,7-tetrahydro-1H-indole-3-carboxamide]
	184 to 186 °C	O=C(Nc1ccc(CCN2CCCC2)cc1)c1c[nH]c2c1C(=O)CCC2 [Compound 59, N-[4-(2-Pyrrolidin-1-ylethyl)phenyl]-4-oxo-4,5,6,7-tetrahydro-1H-indole-3-carboxamide]
	201 °C	CN(C)CCOc1ccc(NC(=O)c2c[nH]c3c2C(=O)CCC3)cc1 [Compound 88, N-[4-(2-Dimethylaminoethoxy)phenyl]-4-oxo-4,5,6,7-tetrahydro-1H-indole-3-carboxamide]
	196 to 199 °C	Cl.O=C(Nc1ccc(OCC2CCCNC2)cc1)c1c[nH]c2c1C(=O)CCC2 (stereo not drawn)
